Like-named read-outs stand apart in the source and are kept apart here.
Key:
[1] = test system: HeLa cells
Text: (§1) The toxicity of the compounds (CC50, being the concentration causing 50% reduction in cell metabolism as measured by Alamar Blue assay) reflects the relative activity of each compound against cellular ion channels, while the antiviral activity (IC50) reflects the relative activity of each compound against the RdRP of CVB3.

[2] = test system: CVB3; conditions: for IC50: read-out: IC5, HeLa cell culture with CVB3; for antiviral effect against CVB3 relative to cytotoxic effect: % virus yield versus % cell metabolism, HeLa cells, FIG. 1; for order of antiviral potency: CVB3, same order as against HRV2
Text: as §1

[3] = test system: CVB3; assay: Reversibility: compounds removed at various times post-infection, CVB3 yield at 10 hours; type: cell-based, Coxsackievirus B3; conditions: compounds removed at 1, 2 or 4 hours post-infection, HeLa cells
Protocol: Virus replication was then allowed to continue until 10 hours post-infection.

[4] = test system: CVB3; assay: Release of virus from CVB3-infected cells; type: cell-based, Coxsackievirus B3; conditions: compared to untreated controls, FIG. 3
[5] = test system: HRV2; conditions: cited from earlier work
[6] = test system: CVB3; assay: Viral RNA synthesis, 3H-uridine pulse label; type: cell-based, Coxsackievirus B3; conditions: treated between four and five hours post infection, compared to untreated cells
Protocol: A standard method to determine which of the two processes is inhibited directly is to add the inhibitor and pulse-label viral RNA and proteins at the time in the replication cycle when sufficient amounts of RNA and proteins have been produced to allow continuation of one process independent of the other.
In a further set of experiments, the effect of the drugs on viral protein synthesis (see FIG. 5) and viral RNA synthesis (see FIG. 6) was determined. Cells were infected as described in Examples 2 and 3, and drugs were added to cells at four hours post infection. Radioactive labels (35S-methionine for proteins, 3H-uridine for RNA) were added to cells from 4.5-5 h post infection. Treatment with GHCl, which inhibits enteroviral RNA replication but not protein synthesis was used as a control.

[7] = test system: CVB3; assay: Viral assembly: viral RNA (3H-uridine) versus virus produced; type: cell-based, Coxsackievirus B3; conditions: 3H-uridine labelling; 25 micromolar EIPA (compared with 500 micromolar guanidine), 400 micromolar amiloride
Protocol: In a further set of experiments, the effect of the drugs on viral assembly was determined. […] Guanidine is well known to inhibit the initiation of viral RNA replication through its effect on the viral 2C protein, but has no effect on the assembly of virus from RNA that is replicated in its presence. Infected cells were incubated with 3H-uridine to label viral RNA, and RNA was detected by electrophoresis and autoradiography.

[8] = test system: CVB3 mutants S299T, A372V, D48G; assay: Drug sensitivity of CVB3 carrying single introduced mutations; type: cell-based, Coxsackievirus B3; conditions: for effect of D48G mutation on virus sensitivity: 2A protein mutation by itself; for sensitivity of viruses containing S299T or A372V mutations: 3D protein mutations, FIG. 11
[9] = test system: CVB3; assay: Time of addition of drugs to CVB3-infected cultures, total virus yield; type: cell-based, Coxsackievirus B3; conditions: 400 μM amiloride or 25 μM EIPA, added up to 2 hours post-infection, yield at 10 hours
Protocol: Cultures were incubated until 10 hours post-infection, then the total virus yield (released virus+intracellular virus) was quantitated (FIG. 2A). Kinetics of virus production was measured in parallel (FIG. 2B). […] This contrasts with well-known antiviral drugs active against picornaviruses such as Pleconaril, which prevent uncoating and/or binding to the cell.

[10] = test system: amiloride-resistant and guanidine-resistant CVB3 clones; assay: Cross-resistance of amiloride-resistant and guanidine-resistant virus clones; type: cell-based, Coxsackievirus B3
[11] = concentration causing 50% reduction in cell metabolism, Alamar Blue assay, HeLa

N=C(NCc1ccc(Cl)cc1Cl)NC(=O)c1nc(Cl)c(N)nc1N [2,4-DCB]
CC5 [1, 11]: 14 µM | IC50 [2]: 5 µM

CN(C)c1nc(N)c(C(=O)N=C(N)N)nc1Cl [DMA]
CC5 [1, 11]: 190 µM | IC50 [2]: 90 µM

CHPG
CC5 [1, 11]: 15 µM | IC50 [2]: 2 µM

NC(N)=NC(=O)c1nc(Cl)c(N2CCCCCC2)nc1N [HMA, 5-(N,N-hexamethylene)amiloride]
CC5 [1]: 25 µM | antiviral effect against CVB3 relative to cytotoxic effect [2]: selective antiviral effect | IC50 [2]: 2 µM

CCN(c1nc(N)c(C(=O)N=C(N)N)nc1Cl)C(C)C [EIPA, 5-(N-ethyl-N-isopropyl)amiloride]
CVB3 production at 10 hours post-infection after removal of compound [3]: equivalent to that of the untreated cultures | CC5 [1, 11]: 25 µM | proportion of extracellular virus [4]: slight increase | effect upon HRV2 RNA replication [5]: no effect | effect on HRV2 release ([5]; previous data): inhibitory effect | amount of viral RNA synthesis [6]: dramatically reduced | amount of viral RNA produced [7]: equivalent amounts of viral RNA | effect of D48G mutation on virus sensitivity [8]: no significant effect | sensitivity of viruses containing S299T or A372V mutations [8]: reduced sensitivity | reduction of virus replication by time of addition [9]: fully effective | antiviral effect against CVB3 relative to cytotoxic effect [2]: selective antiviral effect | order of antiviral potency [2]: EIPA>benzamil>amiloride | IC50 [2]: 2 µM

NC(N)=NC(=O)c1nc(Cl)c(N)nc1N [Amiloride, 3,5-diamino-6-chloro-N-(diaminomethylidene) pyrazine-2-carboxamide]
CVB3 production at 10 hours post-infection after removal of compound [3]: equivalent to that of the untreated cultures | CC5 [1]: >1000 µM | proportion of extracellular virus [4]: slight increase | sensitivity of guanidine-resistant virus clones to antiviral effect ([10]; six clones of guanidine-resistant virus): remained sensitive | effect upon HRV2 RNA replication [5]: no effect | amount of viral RNA synthesis [6]: dramatically reduced | amount of viral RNA produced [7]: greatly reduced | effect of D48G mutation on virus sensitivity [8]: no significant effect | sensitivity of viruses containing S299T or A372V mutations [8]: reduced sensitivity | reduction of virus replication by time of addition [9]: fully effective | order of antiviral potency [2]: EIPA>benzamil>amiloride | IC50 [2]: 50 µM

CNC(N)=NC(=O)c1cc(Cl)ccc1O [CHMG]
CC5 [1, 11]: 155 µM | IC50 [2]: 9 µM

N/C(=N\C(=O)c1nc(Cl)c(N)nc1N)NCc1ccccc1 [Benzamil]
CC5 [1, 11]: 100 µM | antiviral effect against CVB3 relative to cytotoxic effect [2]: selective antiviral effect | order of antiviral potency [2]: EIPA>benzamil>amiloride | IC50 [2]: 10 µM

CC(C)CN(C)c1nc(N)c(C(=O)N=C(N)N)nc1Cl [MIBA]
CC5 [1, 11]: 25 µM | IC50 [2]: 2 µM

N/C(=N\C(=O)c1nc(Cl)c(N)nc1N)NCc1ccc(Cl)c(Cl)c1 [3,4-DCB]
CC5 [1, 11]: 14 µM | IC50 [2]: 5 µM

Cl.N=C(N)N [guanidine, guanidine hydrochloride]
sensitivity of amiloride-resistant virus clones to antiviral effect ([10]; six clones of amiloride-resistant virus): remained sensitive
